test system: PMA-differentiated THP-1 cells; assay: IL-1β production in PMA-differentiated THP-1 cells stimulated with gramicidin (hTHP-1 assay containing 2% fetal bovine serum; Procedures 1 and 2); format: cell-based, human; conditions: Homo sapiens, THP-1, Table B1; 2% fetal bovine serum; class symbols; read-out: Average IC50 of compounds in hTHP-1 assay: hTHP-1 IC50
In short: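 Human monocytic THP-1 cells, matured overnight with PMA at 20 ng/ml, are seeded in low-serum (2% FBS) RPMI. Test compounds, at final concentrations from 100 down to 0.0017 μM, precede gramicidin (5 μM, 2 h) by one hour. Released IL-1β is then determined by HTRF.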

Row | IC50 [nM] | SMILES
1 | 5000 to 30000 | CC(C)c1c(-c2ccccc2)nc2c(c1NC(=O)N=S(N)(=O)c1cnc(C(C)(C)O)s1)CCC2 (stereo not shown) [Compound 145, 2-(2-hydroxypropan-2-yl)-N′-((3-isopropyl-2-phenyl-6,7-dihydro-5H-cyclopenta[b]pyridin-4-yl)carbamoyl)thiazole-5-sulfonimidamide]

same assay, conditions: Homo sapiens, THP-1, Table B2; 2% fetal bovine serum; class symbols; read-out: hTHP-1 IC50

Row | IC50 [nM] | SMILES
2 | 200 to 1000 | CCc1nc2c(c(NC(=O)N=S(N)(=O)c3cnc(C(C)(C)O)s3)c1C1CC1)CCC2 (stereo not shown) [Compound 630, N′-((3-cyclopropyl-2-ethyl-6,7-dihydro-5H-cyclopenta[b]pyridin-4-yl)carbamoyl)-2-(2-hydroxypropan-2-yl)thiazole-5-sulfonimidamide]
3 | 1000 to 5000 | CC(C)n1nc(S(N)(=O)=NC(=O)Nc2c3c(nc4c2CCC4(C)C)CCC3)cc1C(C)(C)O (single isomer, unassigned) [Compound 615b, (R) or (S)-N′-((3,3-dimethyl-1,2,3,5,6,7-hexahydrodicyclopenta [b,e]pyridin-8-yl)carbamoyl)-5-(2-hydroxypropan-2-yl)-1-isopropyl-1H-pyrazole-3-sulfonimidamide]
4 | 1000 to 5000 | CCc1c(C2CC2)nc2c(c1NC(=O)N=S(N)(=O)c1cnc(C(C)(C)O)s1)CCC2 (stereo not shown) [Compound 675, N′-((2-cyclopropyl-3-ethyl-6,7-dihydro-5H-cyclopenta[b]pyridin-4-yl)carbamoyl)-2-(2-hydroxypropan-2-yl)thiazole-5-sulfonimidamide]
5 | 1000 to 5000 | COC(C)(C)c1nc(CO)c(S(N)(=O)=NC(=O)Nc2c3c(nc4c2CCC4(C)C)CCC3)s1 (stereo not shown) [Compound 648, N′-((3,3-dimethyl-1,2,3,5,6,7-hexahydrodicyclopenta[b,e]pyridin-8-yl)carbamoyl)-4-(hydroxymethyl)-2-(2-methoxypropan-2-yl)thiazole-5-sulfonimidamide]

same assay, conditions: Homo sapiens, THP-1, Table B2; 2% fetal bovine serum; numeric bounds; read-out: hTHP-1 IC50

Row | IC50 [nM] | SMILES
6 | > 30000 | CCn1ccc([S@@](N)(=O)=NC(=O)Nc2c3c(nc(C4CC4)c2C2CC2)CCC3)n1 [Compound 726a]
7 | > 30000 | COC(C)(C)c1nc(CO)c(S(N)(=O)=NC(=O)Nc2c3c(nc4c2CCC4(C)C)CCC3)s1 (single isomer, unassigned) [Compound 648b, (S) or (R)-N′-((3,3-dimethyl-1,2,3,5,6,7-hexahydrodicyclopenta [b,e]pyridin-8-yl)carbamoyl)-4-(hydroxymethyl)-2-(2-methoxypropan-2-yl)thiazole-5-sulfonimidamide]

same assay, conditions: Homo sapiens, THP-1, Table B3; hTHP-1 assay, 2% fetal bovine serum; class symbols; read-out: IC50

Row | IC50 [nM] | SMILES
8 | 5000 to 30000 | CC(C)(O)c1csc(S(N)(=O)=NC(=O)Nc2cc(C(F)(F)F)nc3c2CCC3)c1 (stereo not shown) [Example 567, 4-(2-Hydroxypropan-2-yl)-N′-((2-(trifluoromethyl)-6,7-dihydro-5H-cyclopenta[b]pyridin-4-yl)carbamoyl)thiophene-2-sulfonimidamide]
9 | 200 to 1000 | CC(C)(CO)c1ncc(S(N)(=O)=NC(=O)Nc2c3c(nc4c2CCC4(C)C)CCC3)s1 (stereo not shown) [Example 605, N′-((3,3-dimethyl-1,2,3,5,6,7-hexahydrodicyclopenta[b,e]pyridin-8-yl)carbamoyl)-2-(1-hydroxy-2-methylpropan-2-yl)thiazole-5-sulfonimidamide]
10 | 5000 to 30000 | CC(C)(O)c1cccc(S(N)(=O)=NC(=O)Nc2c3c(nc4c2CCC4(C)C)CCC3)n1 (stereo not shown) [Example 630, N′-((3,3-dimethyl-1,2,3,5,6,7-hexahydrodicyclopenta[b,e]pyridin-8-yl)carbamoyl)-6-(2-hydroxypropan-2-yl)pyridine-2-sulfonimidamide]

same assay, conditions: Table B1; 2% fetal bovine serum; class symbols; read-out: Average IC50 of compounds in hTHP-1 assay: hTHP-1 IC50

Row | IC50 [nM] | SMILES
11 | 1000 to 5000 | CC(C)(O)c1cc(S(N)(=O)=NC(=O)Nc2c3c(nc4c2CCC4)CCC3)nn1-c1ccccc1 (single isomer, unassigned) [Compound 159a, (R) or (S)-N′-((1,2,3,5,6,7-hexahydrodicyclo-penta[b,e]pyridin-8-yl)carbamoyl)-5-(2-hydroxypropan-2-yl)-1-phenyl-1H-pyrazole-3-sulfonimidamide]
12 | 40 to 200 | CC1CCc2c1nc1c(c2NC(=O)N=S(N)(=O)c2cc(C(C)(C)O)cs2)CCC1 (single isomer, unassigned) [Compound 141b, (R,R/S) or (S,R/S)-4-(2-hydroxypropan-2-yl)-N′-((3-methyl-1,2,3,5,6,7-hexahydro-dicyclopenta[b,e]pyridin-8-yl)carbamoyl)thiophene-2-sulfonimidamide]
13 | 200 to 1000 | CC(C)c1ncc(F)c(C(C)C)c1NC(=O)N=S(N)(=O)c1cc(C(C)(C)O)cs1 (single isomer, unassigned) [Compound 148a, (R) or (S)-N′-((5-fluoro-2,4-diisopropylpyridin-3-yl)carbamoyl)-4-(2-hy-droxypropan-2-yl)thiophene-2-sulfonimidamide]
14 | 40 to 200 | CC1CCc2c1nc1c(c2NC(=O)N=S(N)(=O)c2ccn(C(C)C)n2)CCC1 (single isomer, unassigned) [Compound 129aa, (R,R) or (R,S)-1-isopropyl-N′-((3-methyl-1,2,3,5,6,7-hexa-hydrodicyclo-penta[b,e]pyridin-8-yl)carbamoyl)-1H-pyrazole-3-sulfonimidamide]

same assay, conditions: Table B2; 2% fetal bovine serum; class symbols; read-out: hTHP-1 IC50

Row | IC50 [nM] | SMILES
15 | 5000 to 30000 | Cc1c(C(C)C)nc2c(c1NC(=O)N=S(N)(=O)c1cnc(C(C)(C)O)s1)CCC2 (single isomer, unassigned) [Compound 650b, (S) or (R)-2-(2-Hydroxypropan-2-yl)-N′-((2-isopropyl-3-methyl-6,7-dihydro-5H-cyclopenta[b]pyridin-4-yl)carbamoyl)thiazole-5-sulfonimidamide]
16 | 40 to 200 | Cc1c(C(F)(F)F)nc2c(c1NC(=O)N=S(N)(=O)c1cc(C(C)(C)O)cs1)CCC2 (single isomer, unassigned) [Compound 624b, (R) or (S)-4-(2-Hydroxypropan-2-yl)-N′-((3-methyl-2-(trifluoromethyl)-6,7-dihydro-5H-cyclopenta[b]pyridin-4-yl)carbamoyl) thiophene-2-sulfonimidamide]
17 | 1000 to 5000 | CCc1c(C2CC2)nc2c(c1NC(=O)N=S(N)(=O)c1cc(C(C)(C)O)cs1)CCC2 (single isomer, unassigned) [Compound 181a, (S) or (R)-N′-((2-cyclopropyl-3-ethyl-6,7-dihydro-5H-cyclopenta[b]pyridin-4-yl)carbamoyl)-4-(2-hydroxypropan-2-yl)thiophene-2-sulfonimidamide]
18 | 200 to 1000 | CCc1c(C(F)(F)F)nc2c(c1NC(=O)N=S(N)(=O)c1cc(C(C)(C)O)cs1)CCC2 (single isomer, unassigned) [Compound 698b, (R) or (S)-N′-((3-ethyl-2-(trifluoromethyl)-6,7-dihydro-5H-cyclopenta[b]pyridin-4-yl)carbamoyl)-4-(2-hydroxypropan-2-yl)thiophene-2-sulfonimidamide]
19 | 1000 to 5000 | Cc1cc(S(N)(=O)=NC(=O)Nc2c3c(nc4c2CCC4)CCC3)sc1C(C)(C)O (single isomer, unassigned) [Compound 692b, (R) or (S)-N′-((1,2,3,5,6,7-hexahydrodicyclopenta [b,e]pyridin-8-yl)carbamoyl)-5-(2-hydroxypropan-2-yl)-4-methylthiophene-2-sulfonimidamide]
20 | 1000 to 5000 | Cc1c(C(F)(F)F)nc2c(c1NC(=O)N=S(N)(=O)c1ccn(C(F)F)n1)CCC2 (single isomer, unassigned) [Compound 621b, (R) or (S)-1-(Difluoromethyl)-N′-((3-methyl-2-(trifluoromethyl)-6,7-dihydro-5H-cyclopenta[b]pyridin-4-yl)carbamoyl)-1H-pyrazole-3-sulfonimidamide]
21 | 1000 to 5000 | Cc1c(C(F)(F)F)nc2c(c1NC(=O)N=S(N)(=O)c1cc(C(C)(C)O)cs1)CCC2 (single isomer, unassigned) [Compound 624a, (S) or (R)-4-(2-Hydroxypropan-2-yl)-N′-((3-methyl-2-(trifluoromethyl)-6,7-dihydro-5H-cyclopenta[b]pyridin-4-yl)carbamoyl) thiophene-2-sulfonimidamide]

same assay, conditions: Table B3; hTHP-1 assay, 2% fetal bovine serum; class symbols; read-out: IC50

Row | IC50 [nM] | SMILES
22 | 40 to 200 | C[C@@H]1CCc2c1nc1c(c2NC(=O)N=S(N)(=O)c2nn(C(F)F)cc2F)CCC1 (single isomer, unassigned) [Example 679, (R) or (S)-1-(difluoromethyl)-4-fluoro-N′-(((R)-3-methyl-1,2,3,5,6,7-hexahydrodicyclopenta[b,e]pyridin-8-yl)carbamoyl)-1H-pyrazole-3-sulfonimidamide]
23 | 40 to 200 | CC1(C)CCc2c1nc1c(c2NC(=O)N=S(N)(=O)c2nn(C(F)F)cc2F)CCC1 (single isomer, unassigned) [Example 721, (R) or (S)-1-(difluoromethyl)-N′-((3,3-dimethyl-1,2,3,5,6,7-hexahydrodicyclopenta[b,e]pyridin-8-yl)carbamoyl)-4-fluoro-1H-pyrazole-3-sulfonimidamide]
24 | 200 to 1000 | Cc1c(C(F)(F)F)nc2c(c1NC(=O)N=S(N)(=O)c1cnc(C(C)(C)O)s1)CCC2C (single isomer, unassigned) [Example 704, (R/S, R) or (R/S, S)-N′-((3,7-dimethyl-2-(trifluoromethyl)-6,7-dihydro-5H-cyclopenta[b]pyridin-4-yl)carbamoyl)-2-(2-hydroxypropan-2-yl)thiazole-5-sulfonimidamide]
25 | 40 to 200 | Cc1nc2c(c(NC(=O)N=S(N)(=O)c3nn(C(F)F)cc3F)c1-c1ccccc1)CCC2 (single isomer, unassigned) [Example 727, (R) or (S)-1-(difluoromethyl)-4-fluoro-N′-((2-methyl-3-phenyl-6,7-dihydro-5H-cyclopenta[b]pyridin-4-yl)carbamoyl)-1H-pyrazole-3-sulfonimidamide]

Reference: patent US20230031406A1, “COMPOUNDS AND COMPOSITIONS FOR TREATING CONDITIONS ASSOCIATED WITH NLRP ACTIVITY” (Novartis AG, priority 2018, published 2023)
